Legend:
[1] = system: Leishmania donovani; test: Antileishmanial activity against Leishmania donovani Ag83 promastigotes infected in BALB/c mouse assessed as reduction in parasite infection at 5 to 20 mg/kg by propidium iodide staining analysis; type: functional, organism-based
[2] = system: Leishmania major; test: Antileishmanial activity against Leishmania major MHOM/IR/-173 promastigotes assessed as inhibition of parasite growth measured for 24 hrs by resazurin dye-based analysis relative to control; type: functional; parameters: scale not given: the % may be the effect or the level left
[3] = system: Leishmania infantum; test: Antileishmanial activity against Leishmania infantum promastigote after 72 hrs by MTT assay; type: functional, organism-based
[4] = Cytotoxicity against mouse RAW264.7 cells assessed as reduction in cell viability measured after 48 hrs by MTT assay; type: toxicity, cell-based
[5] = system: Leishmania braziliensis; test: Antileishmanial activity against Leishmania braziliensis promastigotes; type: functional, organism-based
[6] = system: Leishmania major; test: Antileishmanial activity against Leishmania major promastigotes; type: functional, organism-based
[7] = Cytotoxicity against African green monkey Vero cells assessed as reduction in cell growth; type: toxicity, cell-based, Chlorocebus sabaeus
[8] = system: HepG2; test: Cytotoxicity against human HepG2 cells assessed as reduction in cell growth measured for 48 hrs by MTT assay; type: functional
[9] = system: HepG2; test: Antiproliferative activity against human HepG2 cells assessed as reduction in cell growth measured for 72 hrs by MTT assay; type: functional, cell-based; conditions: HepG2, 72 h
[10] = system: Leishmania infantum; test: Antileishmanial activity against Leishmania infantum MON-1 promastigotes assessed as reduction in parasite viability measured after 48 hrs by MTT assay; type: functional, organism-based; conditions: MON-1, 48 h
[11] = Cytotoxicity against human THP-1 cells assessed as inhibition of cell growth measured after 72 hrs by MTT assay; type: toxicity, cell-based
[12] = system: Leishmania donovani; test: Antileishmanial activity against Leishmania donovani 9515 promastigotes assessed as inhibition of parasite growth incubated for 48 hrs by resazurin dye based assay; type: functional, organism-based; conditions: Leishmania donovani, 9515, 48 h
[13] = system: Leishmania donovani; test: Antileishmanial activity against Leishmania donovani amastigotes MHOM/SD/62/1S assessed as inhibition of cell growth measured after 48 hrs by resazurin dye based assay; type: functional, organism-based
[14] = Cytotoxicity against African green monkey Vero cells assessed as reduction in cell viability incubated for 72 hrs by MTT assay; type: toxicity, cell-based, Chlorocebus sabaeus
[15] = system: Leishmania donovani; test: Antileishmanial activity against Leishmania donovani 9515 amastigotes assessed as inhibition of parasite growth incubated for 48 hrs by resazurin dye based assay; type: functional, organism-based; conditions: Leishmania donovani, 9515, 48 h
[16] = system: Leishmania donovani; test: Antileishmanial activity against Leishmania donovani promastigotes MHOM/SD/62/1S assessed as inhibition of cell growth measured after 48 hrs by resazurin dye based assay; type: functional, organism-based
[17] = system: Leishmania amazonensis; test: Antileishmanial activity against Leishmania amazonensis MHOM/BR/1989/166MJO promastigotes infected in mouse peritoneal macrophage assessed as inhibition of parasite growth measured for 24 hrs by MTT assay; type: functional, organism-based; conditions: Peritoneal macrophage cell
[18] = system: Leishmania amazonensis; test: Antileishmanial activity against Leishmania amazonensis intracellular amastigotes assessed as parasite growth inhibition measured for 72 hrs by resazurin/alamar blue fluorometric assay; type: functional, organism-based
[19] = Selectivity index, ratio of CC50 for cytotoxicity against mouse BMDM cells to IC50 for antileishmanial activity against Leishmania amazonensis intracellular amastigotes; type: toxicity, cell-based; conditions: read-out: Ratio CC50/IC50
[20] = system: Leishmania infantum; test: Antileishmanial activity against Leishmania infantum MHOM/MA/67/ITMAP263 axenic amastigotes assessed as reduction in parasite viability treated for 24 hrs by PI staining based flow cytometry; type: functional, organism-based; conditions: MHOM/MA/67/ITMAP263, 24 h
[21] = Selectivity index, ratio of CC50 for cytotoxicity against mouse J774.A1 cells to IC50 for antileishmanial activity against Leishmania amazonensis axenic amastigote assessed as inhibition of parasite growth; type: toxicity, cell-based; conditions: read-out: Ratio CC50/IC50
[22] = system: Leishmania donovani; test: Antileishmanial activity against Leishmania donovani axenic amastigotes assessed as reduction in parasite growth measured after 24 hrs by PI staining based analysis; type: functional, organism-based
[23] = system: Leishmania donovani; test: Antileishmanial activity against Leishmania donovani MHOM/ET/67/HU3 promastigotes assessed as inhibition of parasite growth incubated for 72 hrs by MTT assay; type: functional, organism-based; conditions: MHOM/ET/67/HU3, 72 h
[24] = Cytotoxicity against mouse J774.A1 cells assessed as reduction in cell viability by MTT assay; type: toxicity, cell-based
[25] = Cytotoxicity against mouse Peritoneal macrophages assessed as reduction in cell viability incubated for 24 hrs by MTT assay; type: toxicity, cell-based, Peritoneal macrophage
[26] = system: Leishmania infantum; test: Antileishmanial activity against Leishmania infantum promastigotes infected in BALB/c mouse macrophages assessed as reduction in parasite load in spleen at 7.7 mg/kg, po administered twice as day for 5 days relative to control; type: functional; parameters: scale not given: the % may be the effect or the level left; conditions: time 5 day
[27] = system: Leishmania infantum; test: Antileishmanial activity against Leishmania infantum MHOM/BR/1972/LD intracellular amastigotes infected in mouse J774A.1 macrophages cells assessed as reduction in parasite viability after 72 hrs by MTT based analysis; type: functional, organism-based; conditions: J774.A1, 72 h
[28] = system: Leishmania infantum; test: Antileishmanial activity against Leishmania infantum promastigotes infected in BALB/c mouse macrophages assessed as reduction in parasite load in liver at 7.7 mg/kg, po administered twice as day for 5 days relative to control; type: functional; parameters: scale not given: the % may be the effect or the level left; conditions: time 5 day
[29] = system: Leishmania donovani; test: Antileishmanial activity against Leishmania donovani MHOM/IN/95/9515 promastigotes assessed as inhibition of parasite proliferation measured for 48 hrs by resazurin dye-based analysis relative to control; type: functional; parameters: scale not given: the % may be the effect or the level left
[30] = Cytotoxicity against African green monkey Vero cells assessed as reduction in cell viability measured after 96 hrs by MTS assay; type: toxicity, cell-based, Chlorocebus sabaeus
[31] = system: Leishmania donovani; test: Antileishmanial activity against Leishmania donovani MHOM/SD/62/1S amastigotes assessed as reduction in cell growth; type: functional, organism-based
[32] = system: Leishmania major; test: Antileishmanial activity against Leishmania major MHOM/IN/95/9515 amastigotes assessed as reduction in cell growth; type: functional, organism-based
[33] = system: Leishmania donovani; test: Antileishmanial activity against Leishmania donovani S1 promastigotes assessed as parasite growth inhibition incubated for 72 hrs by Alamar blue assay; type: functional, organism-based; conditions: S1, 72 h
[34] = system: Leishmania donovani; test: Antileishmanial activity against Leishmania donovani amastigotes assessed as inhibition of parasite growth; type: functional, organism-based
[35] = system: Leishmania donovani; test: Antileishmanial activity against Leishmania donovani promastigotes assessed as inhibition of parasite growth; type: functional, organism-based
[36] = system: Leishmania braziliensis; test: Antileishmanial activity against Leishmania braziliensis promastigotes assessed as reduction in parasite viability after 72 hrs by CCK-8 assay; type: functional, organism-based
[37] = system: Leishmania amazonensis; test: Antileishmanial activity against Leishmania amazonensis promastigotes assessed as reduction in parasite viability after 72 hrs by CCK-8 assay; type: functional, organism-based

## O=C(Nc1cncs1)C(c1ccccc1)c1ccc(Cl)cc1 (stereo not given)
[1]
  IC50: 3.2 µM

## O=C(Cn1cnc2ccccc2c1=O)N1CCC2(CC1)OCCO2
[2]
  Activity: 35%

## O=C(/C=C/c1ccc(F)cc1)c1ccccc1Cl
[3]
  IC50: 74.1 µM
[4]
  CC50 at 48 h: 479 µM

## Cc1cc(OCCCCCNC(C)(C)C)cc2oc3cc(OCCCCCNC(C)(C)C)cc(O)c3c(=O)c12
[5]
  IC50: 2.4 µM
[6]
  IC50: 5.4 µM
[7]
  IC50: 15.5 µM

## CCOC(=O)c1cc2c([nH]c3ccccc32)c(-c2cn(-c3ccccc3)nn2)n1
[8]
  CC50: > 200 µM
[9]
  EC50: 13.6 µM
[10]
  EC50: 4.8 µM

## O=[N+]([O-])c1ccc(/C=N\NS(=O)(=O)c2ccc(-c3ccccc3)cc2)o1
[11]
  IC50 at 72 h: 50.4 µM
[12]
  IC50: 1.53 µM
[13]
  IC50: 2.94 µM
[14]
  IC50 at 72 h: 16.4 µM
[15]
  IC50: 6.29 µM
[16]
  IC50: 1.45 µM

## COc1cc(C(=O)/C=C/c2ccc([N+](=O)[O-])cc2)c(C(C)=O)c2c(OC)cccc12
[17]
  IC50: 18.5 µM

## CCCCCCCCNCc1ccc2c(c1)C(=O)CC(C)(C)O2
[18]
  IC50: 24.6 µM
[19]
  selectivity ratio: 1.6
[20]
  IC50: 25.3 µM

## CC(=O)Oc1ccc(CN2CNC(=O)C=N2)cc1C1OC(c2cccc(Cl)c2)=NN1C(C)=O (stereo not given)
[21]
  selectivity ratio: 2.4
[22]
  IC50: 6.05 µM
[23]
  IC50: 8.98 µM

## NC(=S)N/N=C(/C=C/c1cccnc1)c1cccc(NC(=O)Nc2ccc(Cl)cc2)c1
[24]
  IC50: 3.81 µM

## NC(=O)N/N=C/c1ccc(Oc2no[n+]([O-])c2-c2ccccc2)cc1
[25]
  CC50 at 24 h: 500 µM
[26]
  Activity: 90%
[27]
  EC50: 3.6 µM
[28]
  Activity: 90%

## O=C(Cn1cnc2cc(Cl)ccc2c1=O)n1cnc2cc(Cl)ccc2c1=O
[29]
  Activity: 29%
[30]
  IC50 at 96 h: 0.03 µM

## Cc1ccc2c(NCCCN(C)C(=O)c3cccc(/C=C/C(=O)c4ccc(C)o4)c3)ccnc2c1
[31]
  IC50: 1.08 µM
[32]
  IC50: 1.14 µM

## COc1cccc2c1O/C(=C(/C)c1ncc([N+](=O)[O-])[nH]1)C2=O
[33]
  IC50: 0.016 µM

## Cc1cc(O)c(C(=O)Nc2ccccc2)c(=O)n1Cc1ccc(F)cc1
[34]
  IC50: 55.8 µM
[35]
  IC50: 55 µM

## COc1cc(OC)c(C(=O)/C=C/c2cccc(C)c2)c([N+](=O)[O-])c1
[36]
  EC50: 1.45 µM
[37]
  EC50: 0.42 µM

## CCOC(=O)c1cc2c([nH]c3ccccc32)c(-c2cc3ccccc3n3nnnc23)n1
[8]
  CC50: 27.9 µM
[9]
  EC50: 10.2 µM
[10]
  EC50: 3.36 µM
